{"source": "paper PMC12508057", "about": "“Discovery of ETI41 and ETI60: novel selective endosomal Toll-like receptor inhibitors for the treatment of autoimmune diseases” (Experimental & Molecular Medicine, 2025)", "key": {"hTLR9": {"molecular_target": "T1, hTLR9 (Homo sapiens, UniProt Q9NR96)", "T1 construct": "human B lymphoblasts (Daudi cells); endogenous in cells; host or cells: Daudi", "T1 sequence (Q9NR96 26-1032)": "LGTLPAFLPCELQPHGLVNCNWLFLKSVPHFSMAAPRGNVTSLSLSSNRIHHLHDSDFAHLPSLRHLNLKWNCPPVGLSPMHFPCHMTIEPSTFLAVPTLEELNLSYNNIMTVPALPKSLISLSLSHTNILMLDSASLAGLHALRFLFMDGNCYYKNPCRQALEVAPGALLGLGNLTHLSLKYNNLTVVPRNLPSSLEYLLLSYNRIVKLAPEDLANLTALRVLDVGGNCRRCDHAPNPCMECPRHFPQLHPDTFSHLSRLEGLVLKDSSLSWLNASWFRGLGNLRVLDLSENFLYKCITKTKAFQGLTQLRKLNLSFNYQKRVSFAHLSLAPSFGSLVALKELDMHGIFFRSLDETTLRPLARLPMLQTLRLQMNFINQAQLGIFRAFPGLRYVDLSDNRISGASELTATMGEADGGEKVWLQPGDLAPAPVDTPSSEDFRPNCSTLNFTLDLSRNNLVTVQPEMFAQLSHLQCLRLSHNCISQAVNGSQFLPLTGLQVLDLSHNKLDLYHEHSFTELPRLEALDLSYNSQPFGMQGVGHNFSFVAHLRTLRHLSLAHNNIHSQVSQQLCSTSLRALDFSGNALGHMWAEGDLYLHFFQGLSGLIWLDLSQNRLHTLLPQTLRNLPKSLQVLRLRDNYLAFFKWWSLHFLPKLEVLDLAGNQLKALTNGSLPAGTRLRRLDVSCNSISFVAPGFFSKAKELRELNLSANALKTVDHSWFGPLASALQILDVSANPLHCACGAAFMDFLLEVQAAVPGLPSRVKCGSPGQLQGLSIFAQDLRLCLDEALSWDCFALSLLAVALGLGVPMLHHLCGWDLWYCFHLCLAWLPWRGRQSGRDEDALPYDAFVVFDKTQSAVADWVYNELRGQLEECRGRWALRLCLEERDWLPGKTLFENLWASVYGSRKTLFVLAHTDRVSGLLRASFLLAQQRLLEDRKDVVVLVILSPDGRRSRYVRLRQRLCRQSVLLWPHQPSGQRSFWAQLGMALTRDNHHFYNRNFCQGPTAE", "assay": "TLR9 inhibition, ODN2395-induced hTNFα in Daudi", "type": "cell-based", "procedure": "(§1) RAW 264.7 and differentiated THP-1 cells were seeded into 96-well plates at 2 × 10^4 cells per well, while Daudi cells were seeded at 5 × 10^4 cells per well. After stabilization for 30 min, cells were stimulated with specific TLR agonists for 4 or 24 h. Supernatants were diluted and transferred to precoated ELISA plates to measure TNF-α secretion using kits from Invitrogen. Optical absorbance was measured using a BioTek Synergy HTX multimode microplate reader, and data were interpolated using BioTek Gen5 software.\nOne-tailed paired Student’s t-tests were performed using Microsoft Excel (Microsoft). Semi-logarithmic conversions and nonregression curve analyses for calculating 50% lethal concentration (LC50) and 50% inhibitory concentration (IC50) values were conducted using GraphPad Prism 7.0 (GraphPad). The therapeutic index was calculated as […]. Animal experimental results are expressed as mean ± standard deviation and analyzed using SPSS v.20 (IBM SPSS Statistics). Homogeneity of variance was assessed using Levene’s test. […]"}, "TLR1/TLR2": {"test_system": "TLR1/TLR2", "assay": "Surface TLR specificity, TNF-α secretion in differentiated THP-1", "type": "cell-based, human", "details": "2 and 5 μM, differentiated THP-1, FSL-1", "procedure": "as §1\n(§2) The cells were activated with agonistic ligands: […], TLR3 (poly I:C, 2 μg/ml, 24 h), TLR4 (LPS, 10 or 100 ng/ml, 4 h), TLR5 (FLA-ST, 500 ng/ml, 4 h), TLR7 (ORN06/LyoVec, 2 μg/ml, 24 h; and IMQ, 1 μg/ml, 4 h), TLR8 (TL8-506, 2 μg/ml, 24 h) and TLR9 (ODN2395, 1 μM, 4 h) at various concentrations in RAW 264.7 cells, human Daudi cells and THP-1 cells. Data are from at least three independent experiments (n = 3) and statistical differences between the induced case and other cases were analyzed and verified using a one-tailed Student’s t-test (*P < 0.05, **P < 0.01, ***P < 0.001).\n(§3) Given the structural similarities among TLR family proteins, achieving high selectivity is challenging. We tested the effects of ETI41 and ETI60 on various surface TLRs to determine their specificity. […] TLRs activate transcription factors, including NF-κB, MAPKs, c-Jun N-terminal kinase (JNK), extracellular signal-regulated kinase (ERK) and IRF7, which regulate cellular functions such as proliferation and apoptosis. Western blot analysis confirmed that ETI41 and ETI60 inhibited IMQ- or ODN2395-induced phosphorylation of MAPKs (p-ERK, p-JNK and p-p38), nuclear translocation of the NF-κB p65 subunit, Iκ-Bα degradation and IRF7 expression in RAW 264.7 cells (Fig. 2a–c and Supplementary Figs. 2 and 3)."}, "TLR2/TLR6": {"test_system": "TLR2/TLR6", "assay": "Surface TLR specificity, TNF-α secretion in differentiated THP-1", "type": "cell-based, human", "details": "2 and 5 μM, differentiated THP-1, Pam3CSK4", "procedure": "as §1, §2, §3"}, "[1]": {"test_system": "endosomal and lysosomal pH", "assay": "pH assay of endosomes and lysosomes in RAW 264.7", "type": "cell-based, mouse", "procedure": "RAW 264.7 cells were seeded into black 96-well plates at […] cells per well and incubated overnight. After washing, the cells were treated with phenol-free RPMI 1640 medium (Gibco). Following 30 min of treatment with ETI41 or ETI60, cells were incubated with 20 µg/ml of pHrodo Red Dextran (Thermo Fisher Scientific) or 10 µM LysoSensor Yellow/Blue DND-160 (Thermo Fisher Scientific). Fluorescence was measured using a BioTek Synergy HTX Multimode Microplate Reader. Data were analyzed using the BioTek Gen5 software.\nFig. 3 Binding mechanism of ETI41 and ETI60 with TLR7 and TLR9. a ETI41 and ETI60 bind to the extracellular domain of TLR7. b Detailed intermolecular interactions ofETI41 and ETI60 are shown with the key residues of TLR7. c ETI41 and ETI60 bind to the extracellular domain of TLR9. d Intermolecular interactions of ETI41 and ETI60 with the key residues of TLR9. The asterisk indicates chain A of TLR7 and TLR9. ETI41 and ETI60 are depicted in ball-and-stick models. Bonds are represented by lines, with distances measured in ångström (Å) units. […] Data presented are from three independent experiments (n = 3), and statistical differences between the induced case and other cases were analyzed and verified using a one-tailed Student’s t-test (*P < 0.05, **P < 0.01, ***P < 0.001). […]"}}, "data": [{"smiles": "Cc1cc2c(N)c3c(nc2n1CCCN(C)C)CCCCCC3", "note": "[ETI41]", "values": [{"measurement": "IC50", "setting": "hTLR9", "value": 80.1, "unit": "nM"}, {"measurement": "Inhibition of TLR1/TLR2 (TNF-α secretion)", "setting": "TLR1/TLR2", "value": "neither compound inhibited"}, {"measurement": "Inhibition of TLR2/TLR6 (TNF-α secretion)", "setting": "TLR2/TLR6", "value": "neither compound inhibited"}, {"measurement": "pH of endosomes containing TLR3, TLR7, TLR8 and TLR9", "setting": "[1]", "value": "did not significantly affect"}]}, {"smiles": "COc1ccc2c3c(N)c4c(nc3n(CCCN(C)C)c2c1)CCCC4", "note": "[ETI60]", "values": [{"measurement": "IC50", "setting": "hTLR9", "value": 20.9, "unit": "nM"}, {"measurement": "Inhibition of TLR1/TLR2 (TNF-α secretion)", "setting": "TLR1/TLR2", "value": "neither compound inhibited"}, {"measurement": "Inhibition of TLR2/TLR6 (TNF-α secretion)", "setting": "TLR2/TLR6", "value": "neither compound inhibited"}, {"measurement": "pH of endosomes containing TLR3, TLR7, TLR8 and TLR9", "setting": "[1]", "value": "did not significantly affect"}]}]}
